Test results as given in the NIST ThermoML archive (doi:10.1016/j.fluid.2008.03.004).

Test: xn = mol fraction of the nth substance listed
Settings: 101 kPa, Liquid; for speed of sound: Sing-around technique in a fixed-path interferometer

CCOC(C)(C)C [2-ethoxy-2-methylpropane] + Cc1ccc(C)cc1
Settings | mass density [kg/m3] | speed of sound [m/s]
288.15 K, x1 = 0.062 | 857.461 | 1332.5
288.15 K, x1 = 0.123 | 849.969 | 1315.3
288.15 K, x1 = 0.238 | 836.401 | 1283.6
288.15 K, x1 = 0.35 | 822.903 | 1252.6
288.15 K, x1 = 0.455 | 810.328 | 1223.7
288.15 K, x1 = 0.557 | 798.162 | 1195.8
288.15 K, x1 = 0.654 | 786.517 | 1169.2
288.15 K, x1 = 0.746 | 775.593 | 1144.4
288.15 K, x1 = 0.834 | 764.97 | 1120.8
288.15 K, x1 = 0.902 | 756.828 | 1102.5
288.15 K, x1 = 0.959 | 749.995 | 1087.2
288.15 K, x1 = 1 | 744.955 | 1076.4
290.65 K, x1 = 0.062 | 855.329 | 1321.8
290.65 K, x1 = 0.123 | 847.837 | 1304.4
290.65 K, x1 = 0.238 | 834.222 | 1272.7
290.65 K, x1 = 0.35 | 820.676 | 1241.5
290.65 K, x1 = 0.455 | 808.058 | 1212.6
290.65 K, x1 = 0.557 | 795.855 | 1184.6
290.65 K, x1 = 0.654 | 784.174 | 1158
290.65 K, x1 = 0.746 | 773.205 | 1133.1
290.65 K, x1 = 0.834 | 762.549 | 1109.4
290.65 K, x1 = 0.902 | 754.379 | 1091
290.65 K, x1 = 0.959 | 747.527 | 1076
290.65 K, x1 = 1 | 742.482 | 1065.1
293.15 K, x1 = 0.062 | 853.16 | 1311
293.15 K, x1 = 0.123 | 845.64 | 1293.7
293.15 K, x1 = 0.238 | 831.974 | 1261.7
293.15 K, x1 = 0.35 | 818.389 | 1230.6
293.15 K, x1 = 0.455 | 805.723 | 1201.5
293.15 K, x1 = 0.557 | 793.481 | 1173.4
293.15 K, x1 = 0.654 | 781.767 | 1146.8
293.15 K, x1 = 0.746 | 770.753 | 1121.7
293.15 K, x1 = 0.834 | 760.076 | 1098.1
293.15 K, x1 = 0.902 | 751.872 | 1079.6
293.15 K, x1 = 0.959 | 745.006 | 1064.5
293.15 K, x1 = 1 | 739.947 | 1053.7
295.65 K, x1 = 0.062 | 850.963 | 1300.3
295.65 K, x1 = 0.123 | 843.426 | 1282.9
295.65 K, x1 = 0.238 | 829.705 | 1250.9
295.65 K, x1 = 0.35 | 816.087 | 1219.6
295.65 K, x1 = 0.455 | 803.381 | 1190.5
295.65 K, x1 = 0.557 | 791.102 | 1162.2
295.65 K, x1 = 0.654 | 779.339 | 1135.5
295.65 K, x1 = 0.746 | 768.276 | 1110.5
295.65 K, x1 = 0.834 | 757.573 | 1086.7
295.65 K, x1 = 0.902 | 749.342 | 1068.2
295.65 K, x1 = 0.959 | 742.457 | 1053.1
295.65 K, x1 = 1 | 737.374 | 1042.2
298.15 K, x1 = 0.062 | 848.771 | 1289.8
298.15 K, x1 = 0.123 | 841.223 | 1272.5
298.15 K, x1 = 0.238 | 827.443 | 1240.2
298.15 K, x1 = 0.35 | 813.789 | 1208.9
298.15 K, x1 = 0.455 | 801.037 | 1179.6
298.15 K, x1 = 0.557 | 788.722 | 1151.4
298.15 K, x1 = 0.654 | 776.911 | 1124.5
298.15 K, x1 = 0.746 | 765.812 | 1099.4
298.15 K, x1 = 0.834 | 755.077 | 1075.5
298.15 K, x1 = 0.902 | 746.808 | 1057
298.15 K, x1 = 0.959 | 739.904 | 1041.9
298.15 K, x1 = 1 | 734.806 | 1031
300.65 K, x1 = 0.062 | 846.559 | 1279.4
300.65 K, x1 = 0.123 | 839.002 | 1262.1
300.65 K, x1 = 0.238 | 825.16 | 1229.7
300.65 K, x1 = 0.35 | 811.468 | 1198.2
300.65 K, x1 = 0.455 | 798.683 | 1168.9
300.65 K, x1 = 0.557 | 786.313 | 1140.5
300.65 K, x1 = 0.654 | 774.466 | 1113.6
300.65 K, x1 = 0.746 | 763.325 | 1088.4
300.65 K, x1 = 0.834 | 752.561 | 1064.5
300.65 K, x1 = 0.902 | 744.252 | 1045.9
300.65 K, x1 = 0.959 | 737.326 | 1030.6
300.65 K, x1 = 1 | 732.225 | 1019.8
303.15 K, x1 = 0.062 | 844.378 | 1269.2
303.15 K, x1 = 0.123 | 836.793 | 1251.8
303.15 K, x1 = 0.238 | 822.9 | 1219.2
303.15 K, x1 = 0.35 | 809.173 | 1187.7
303.15 K, x1 = 0.455 | 796.342 | 1158.2
303.15 K, x1 = 0.557 | 783.933 | 1129.8
303.15 K, x1 = 0.654 | 772.039 | 1102.8
303.15 K, x1 = 0.746 | 760.846 | 1077.5
303.15 K, x1 = 0.834 | 750.063 | 1053.5
303.15 K, x1 = 0.902 | 741.716 | 1034.8
303.15 K, x1 = 0.959 | 734.772 | 1019.6
303.15 K, x1 = 1 | 729.647 | 1008.6
305.65 K, x1 = 0.062 | – | 1258.9
305.65 K, x1 = 0.123 | – | 1241.4
305.65 K, x1 = 0.238 | – | 1208.8
305.65 K, x1 = 0.35 | – | 1177.1
305.65 K, x1 = 0.455 | – | 1147.5
305.65 K, x1 = 0.557 | – | 1119
305.65 K, x1 = 0.654 | – | 1091.9
305.65 K, x1 = 0.746 | – | 1066.6
305.65 K, x1 = 0.834 | – | 1042.5
305.65 K, x1 = 0.902 | – | 1023.8
305.65 K, x1 = 0.959 | – | 1008.5
305.65 K, x1 = 1 | – | 997.52
